Experiments:
HDAC8 = HDAC8 (Homo sapiens, UniProt Q9BY41); conditions: cited from earlier work
PC-3 = assay: Tumor cell growth inhibition, CellTiter-Glo viability, PC-3; format: cell-based; conditions: PC-3, Prostate; 72 hours
Method: (§1) To support the potential of compounds of the invention as antitumor agents, their ability to inhibit tumor cell growth across a range of cancer types was evaluated, compared to cisplatin (See FIGS. 3A-3C and FIGS. 4A-4C). Cancer cells were seeded at optimized density on 384-well plates in appropriate media for 24 hours in triplicate for each test article. Titrated compounds or cisplatin were added to cultures for 72 hours with 3-fold dilutions totaling 9 concentrations starting from 30 uM for compounds or 50 uM for cisplatin (see FIGS. 3A-3C). Cell viability was then determined by CellTiter-Glo® Luminescent Cell Viability Assay from Promega, Madison Wisconsin. A dose response curve (see FIGS. 4A-4C) was fitted from luminance activity and the IC50 for each test article was calculated using a four-parameter variable slope in GraphPad Prism version 8.0.0 for Windows, GraphPad Software, San Diego, California USA, www.graphpad.com. Conjugates were more cytotoxic to cancer cells compared to cisplatin alone, some were particularly noteworthy in colon cancer (HCT-15), prostate cancer (PC-3), and breast cancer (MCF-7) cells compared to cisplatin (see, also, Table 1, below).

MCF-7 = assay: Tumor cell growth inhibition, CellTiter-Glo viability, MCF-7; format: cell-based; conditions: MCF-7, Breast; 72 hours
Method: as §1

MDA-MB-231 = assay: Tumor cell growth inhibition, CellTiter-Glo viability, MDA-MB-231; format: cell-based; conditions: MDA-MB-231, Breast; 72 hours
Method: as §1

Hela = assay: Tumor cell growth inhibition, CellTiter-Glo viability, Hela; format: cell-based; conditions: Cervical, 72 hours
Method: as §1

LNCap = assay: Tumor cell growth inhibition, CellTiter-Glo viability, LNCap; format: cell-based; conditions: Prostate, 72 hours
Method: as §1

Huh-7 = assay: Tumor cell growth inhibition, CellTiter-Glo viability, Huh-7; format: cell-based; conditions: Huh-7, Liver; 72 hours
Method: as §1

HCT-15 = assay: Tumor cell growth inhibition, CellTiter-Glo viability, HCT-15; format: cell-based; conditions: HCT-15, Colon; 72 hours
Method: as §1

H929 = assay: Tumor cell growth inhibition, CellTiter-Glo viability, H929; format: cell-based; conditions: H929, Bone Marrow; 72 hours
Method: as §1

HepG2-PM4 = assay: Tumor cell growth inhibition, CellTiter-Glo viability, HepG2-PM4; format: cell-based; conditions: HepG2-PM4, Liver; 72 hours
Method: as §1

[1] = Chemoprotection against cisplatin-induced myelotoxicity; conditions: preliminary results
Source text: Accordingly, by combining PTBA or its analogs with cisplatin through chemical conjugation, not only will the conjugate drug have the potential to act as a synergistic anti-cancer drug combination in its own right, but PTBA and its analogs will also provide for chemoprotection against nephrotoxicity during cancer therapy. […] By reducing adverse side effects, this chemoprotective characteristic of PTBA and its analogs, co-administered as a chemical conjugate with cisplatin, has the potential to increase drug tolerability, to permit uninterrupted treatment schedules, and to eliminate the need to reduce drug doses.

[2] = system: nephrotoxin-induced and ischemia/reperfusion-induced kidney injury; conditions: rodents; cited from earlier work

Sequence of HDAC8 (Q9BY41 whole entry): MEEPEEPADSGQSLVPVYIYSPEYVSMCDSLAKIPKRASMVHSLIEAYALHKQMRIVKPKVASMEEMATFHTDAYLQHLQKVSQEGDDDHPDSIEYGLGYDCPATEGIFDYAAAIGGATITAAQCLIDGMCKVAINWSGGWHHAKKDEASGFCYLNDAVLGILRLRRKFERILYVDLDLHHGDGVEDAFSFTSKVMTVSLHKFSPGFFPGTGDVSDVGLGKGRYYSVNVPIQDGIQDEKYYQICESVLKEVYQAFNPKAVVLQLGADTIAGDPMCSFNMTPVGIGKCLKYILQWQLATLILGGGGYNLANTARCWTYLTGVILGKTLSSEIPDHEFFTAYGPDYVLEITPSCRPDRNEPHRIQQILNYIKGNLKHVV

O=C(CCCCCCC(=O)Nc1ccccc1)NO [Vorinostat, suberoylanilide hydroxamic acid]
Inhibition of HDAC8 (potency range) (HDAC8): micromolar range

N.N.[Cl][Pt][Cl] [Cisplatin, cisdiamminedichloroplatinum [II]]
IC50 (PC-3): 22 µM | IC50 (MCF-7): 2.25 µM | IC50 (MDA-MB-231): 2.85 µM | IC50 (Hela): 12.3 µM | IC50 (LNCap): 10.9 µM | IC50 (Huh-7): 6.47 µM | IC50 (HCT-15): 24.3 µM | IC50 (H929): 2.35 µM | IC50 (HepG2-PM4): 14 µM

O=C(O)CCCSc1ccccc1 [PTBA, 4-(phenylthio)butanoic acid]
Chemoprotective effect against cisplatin-induced myelotoxicity [1]: chemoprotective effect | Recovery of kidney function after AKI [2]: significantly accelerate recovery of kidney function

Trichostatin A
Concentration that completely inhibits HDAC8 activity (HDAC8): 5 µM
